System: pig erythrocytes
Experiment: Hemolytic assay
Experimental: The ability of the compounds to lyse eukaryotic red blood cells was measured by the amount of hemoglobin released upon incubation with pig erythrocytes, following a published protocol [30]. Briefly, fresh pig blood (generously provided by Dr. Richard Hodges, Director of Animal Care and Veterinary Services of the University of Manitoba) drawn from a pig's antecubital vein was centrifuged at 1000 g for 5 min at 4° C., washed with phosphate-buffered saline (PBS) three times, and re-suspended in the same buffer, consecutively. Compounds at study were 2-fold serially diluted in PBS on a 96-well plate and mixed with equal volumes of erythrocyte solution. Post 1 h incubation at 37° C., the intact cells were pelleted by centrifugation at 1000 g for 5 min at 4° C. Resulting supernatant was then transferred to a new 96-well plate. The hemoglobin released was then measured via an EMax Plus microplate reader (Molecular Devices, USA) at 570 nm wavelength. Erythrocytes in PBS with or without 0.1% Triton X-100 were used as positive or negative control, respectively.

colistin [reference compound]
% Hemolysis at 512 μg/mL of polymyxin (512 μg/mL, pig erythrocytes, 1 h at 37° C.): 1.6 ± 0.5% | MHC5, minimum concentration that resulted in 5% red blood cell hemolysis (pig erythrocytes, 1 h at 37° C.): >512 µg/mL | hemolytic activity (up to the highest concentration tested of 512 μg/mL): no hemolytic activity

From patent US20210261621A1, “Preparation of Dilipid Polymixins and Use Thereof as Antimicrobial Adjuvants” (priority 2018, published 2021)
